Values of other authors as cited in US20060269583A1, “Process and composition for treating wood” (priority 2005, published 2006).

Conditions: in about 10 years under a given set of field conditions

Substance: copper amine carbonate complex
- copper removed by leaching: ≤ 80%
